According to patent US10426790B2, “Treatment of allergic eye conditions with cyclodextrins” (Aldeyra Therapeutics, Inc., priority 2016, dated 2019):
“Also recorded” adds a separate entry of the source.

Columns and labels:
[1] = test system: subjects with allergic conjunctivitis; assay: Phase IIa CAPT study, safety and tolerability; type: in vivo, human
From the text: Clinical Study Endpoints—Safety Endpoints: (1) number and severity of local and systemic reactions, and other adverse reactions; (2) vital signs; (3) slit lamp examination; (4) visual acuity; (5) non-contact tonometry; and (6) fundus examination.
Study Products and Randomization. For study purposes, NS2 0.5% and NS2 0.0% are both referred to as study drug. NS2 is formulated in eye drops for topical ocular use. The drug product is supplied as single dose unpreserved eye drops at an NS2 concentration of 0.5% (w/v). The formulation is 9.5% sulfobutylether-β-cyclodextrin (SBE-β-CD) in sterile water for injection buffered with sodium phosphate, dibasic and monobasic, and pH adjusted to 7.3.
Dose Administration. NS2 ophthalmic drops (0.5%) or NS2 ophthalmic drops (0.0%) Vehicle are provided as single use blow fill vials. One drop is instilled into each eye four times daily for approximately […].
Adverse Events. An adverse event (AE) is defined as any untoward medical occurrence associated with the use of a drug in humans, whether or not considered drug related. Disease signs, symptoms, and/or laboratory abnormalities already existing prior to the use of the product are not considered AEs after treatment unless they reoccur after the subject has recovered from the pre-existing condition or, in the opinion of the investigator, they represent a clinically significant exacerbation in intensity or frequency. AEs are collected from the time the subject signs the informed consent form until the completion of study. AEs reported prior to dosing are captured and considered non treatment emergent AEs.
Safety Analysis. Safety is evaluated via the following parameters: (a) AEs; (b) Vital signs; (c) Slit lamp examination; (d) Visual acuity; (e) Non-contact tonometry; and (f) Fundus examination.
Cyclodextrin Response in CAPT Model. Cyclodextrin was utilized as vehicle in a Randomized, Parallel, Single-Center, Double-Masked, Vehicle-Controlled Phase II Study to Evaluate the Activity of Study Drug NS2 (i.e., structural formula (I)) Ophthalmic Solution in Subjects with Allergic Conjunctivitis using the Conjunctival Allergen Provocation Test (CAPT). There were initial screening and titrating CAPT visits, followed by confirmatory CAPT visits where the allergen dose which reproducibly causes an ocular allergic reaction was selected. This allergen dose was utilized for the active dosing study phase. A CAPT Onset of Action Visit after a single dose of study drug to each eye on dosing Day 1, Visit 4 (V4), and three post-2 week dosing CAPT visits on active dosing days 14, 15 and 16, V5-7. NS2 and vehicle were dosed 4× daily for 16 days. 100 healthy men and women with at least a 2 year history of allergic conjunctivitis to grass, tree or ragweed pollen were enrolled, randomized 1:1, 50 on NS2 and 50 on vehicle containing cyclodextrin.
The allergic conjunctivitis Phase IIa trial was a randomized, parallel group, double-masked, vehicle-controlled design evaluating the activity of NS2 ophthalmic solution in subjects with allergic conjunctivitis. The trial utilized the Conjunctival Allergen Provocation Test, known as the CAPT, and was conducted at a single center, Inflamax Research in Ontario, Canada, which has considerable experience with the CAPT model.

[2] = test system: subjects with allergic conjunctivitis to grass, tree or ragweed pollen (CAPT); assay: Phase IIa Conjunctival Allergen Provocation Test (CAPT) study, activity endpoints; type: in vivo, human; details: for efficacy in treating allergic conjunctivitis, result in words: clinical trial, topical ocular, four times daily about two weeks
From the text: The primary objective of the study is to evaluate the safety and activity of NS2, i.e., compound of structural formula (I), compared to vehicle in the treatment of moderate to severe allergic conjunctivitis in subjects allergic to grass, ragweed or tree allergens following approximately 2 weeks of treatment using the Conjunctival Allergen Provocation Test (CAPT) model.
This double-blind, vehicle-controlled, randomized, parallel group study allows for testing NS2 versus vehicle in subjects with grass, tree or ragweed-induced allergic conjunctivitis in CAPT model. This study consists of 7 or 8 visits to the clinic (a medical screening visit, a titrating CAPT visit, 1 or 2 confirmatory CAPT visits, a CAPT Onset of Action Visit, and three post-2 week dosing CAPT visits) over approximately 9 weeks.
At Visit 4, site staff will update concomitant medications and collect AEs as applicable. Ophthalmic evaluations are conducted (VA, SLE, subject rating of ocular symptoms, and staff grading of conjunctival redness and lid swelling). Subjects must have ocular itching scores of 0 in each eye and conjunctival redness scores of ≤1 in each eye in each region (nasal and temporal) of each eye in order to participate. […] 30 min prior to the CAPT procedure, clinic staff instills one drop of the randomized treatment into each eye. CAPT is then performed using the concentration titration than what reached the positive response at Visit 3 or 3B. Once the CAPT allergen is instilled, subject assessed symptoms and staff assessed signs are collected at 2.5 (+1 min—itching only), 5, 10, 15 min (+2 min), 30, 60, 90, 120, 150, 180 (+5 min). At the end of the visit, subjects are instructed and dispensed their randomized treatment for 2 weeks of at-home qid dosing and their diary card for recording their dosing, AEs, and concomitant medications. Subjects are scheduled to return for Visit 5 in 2 weeks.
(§1) At Visit 5, site staff will update concomitant medications and collect AEs as applicable. Ophthalmic evaluations are conducted (VA, SLE, subject rating of ocular symptoms, and staff grading of conjunctival redness and lid swelling). Approximately 10 μL of basal tears is collected from both eyes for cytokine analysis prior to drug instillation and CAPT. 30 min prior to the CAPT procedure, clinic staff instills one drop of the randomized treatment into each eye. CAPT is then performed using the concentration titration than what reached the positive response at Visit 3 or 3B. Once the CAPT allergen is instilled, subject assessed symptoms and staff assessed signs are collected at 2.5 (+1 min—itching only), 5, 10, 15 min (+2 min), 30, 60, 90, 120, 150, 180 min (+5 min). Following CAPT instillation, tear collection is begun at the 35 min (+15 min) mark, and approximately 10 μL of basal tears is collected from both eyes.
as §1, with “Visit 6,” for “Visit 5,”, “swelling).” for “swelling). Approximately 10 μL of basal tears is collected from both eyes for cytokine analysis prior to drug instillation and CAPT.”, “min).” for “min). Following CAPT instillation, tear collection is begun at the 35 min (+15 min) mark, and approximately 10 μL of basal tears is collected from both eyes.”
At Visit 7, site staff will update concomitant medications and collect AEs as applicable. Ophthalmic evaluations are conducted (VA, SLE, subject rating of ocular symptoms, and staff grading of conjunctival redness and lid swelling). 30 min prior to the CAPT procedure, clinic staff instills one drop of the randomized treatment into each eye. CAPT is then performed using the concentration titration than what reached the positive response at Visit 3 or 3B. […]

[3] = 16 days of dosing four times per day, 50 subjects
[4] = CAPT, Day 1 single dose and multiple days dosing, NS2 0.5% vs vehicle (9.5% SBE-β-CD)

Compound	patients of the drug group who withdrew from the study (stinging) [1, 3] [patients]	patients of the drug group who withdrew from the study (stinging), percent [1, 3] [%]	stinging/burning adverse events reported as moderate ([1]; NS2 group)	frequency of stinging and or burning ([1]; NS2 group vs vehicle)	tolerability, result in words ([1]; topical ocular 0.5%, 4x daily, 16 days)	serious adverse events ([1]; whole study)	duration of clinical efficacy following each CAPT challenge ([2]; 3 hours studied after each CAPT challenge) [h]	ocular itching score, result in words [2, 4]	ocular tearing score, result in words [2, 4]	lid swelling, frequency and pattern, result in words ([2]; CAPT, NS2 vs vehicle)	efficacy in treating allergic conjunctivitis, result in words [2]
CC(C)(O)c1nc2ccc(Cl)cc2cc1N [NS2]	2	4	less than 10%	increased frequency	generally well tolerated	no serious adverse events	≥ 3	statistically significant differences; also recorded: greater effect; also recorded: exceeding one point reductions	statistically significant differences; also recorded: greater effect; also recorded: exceeding one point reductions	appeared similar	greater effect
sulfobutylether-β-cyclodextrin	–	–	–	–	–	–	–	–	–	–	high response rates and significant efficacy
